The values below come from patent publication US7750013B2, “N-oxides as prodrugs of piperazine and piperidine derivatives” (Solvay Pharmaceuticals, B.V., priority 2005, dated 2010).

The term pKi denotes −log10 of the Ki, conventionally taken in molar units. A word on the ED50: it is the dose that gives a 50% effect, or the effect in half of the subjects. For orientation: melting point means the temperature of the solid-liquid transition.

pKi: −log10 of the molar value.

One series deals with Dopamine-D1 (Homo sapiens, UniProt P21728). The experiment in a line: In vitro receptor affinity, Dopamine-D1. The series is classed as binding. As to the method: (§1) The binding data collected in the table below (Example 5: pharmacological test results) were either obtained by CEREP (128, rue Danton, 92500 Rueil-Malmaison, France) or at Solvay Pharmaceuticals B.V. (C. J. van Houtenlaan 36, 1381 CP Weesp, The Netherlands), using well documented standard procedures. The affinities for dopamine-D2 and 5-HT1A receptors for instance, was measured as described by Creese I, Schneider R and Snyder S H, [^3H]-Spiroperidol labels dopamine receptors in rat pituitary and brain, Eur J Pharmacol […], 46: 377-381 and Gozlan H, El Mestikawy S, Pichat L, Glowinsky J and Hamon M, 1983, Identification of presynaptic serotonin autoreceptors using a new ligand ^3H-PAT, Nature 1983, 305: 140-142.

A further series addresses Dopamine-D4 (Homo sapiens, UniProt P21917). The series can be described thus: In vitro receptor affinity, Dopamine-D4. Format: binding. On the procedure:
as §1

Another series concerns the target 5-HT1B (Rattus norvegicus, UniProt P28564). The series can be described thus: In vitro receptor affinity, 5-HT1B. The series is classed as binding. As to the method:
as §1

A further series deals with α1A-adrenergic (Rattus norvegicus, UniProt P43140). The experiment in a line: In vitro receptor affinity, α1A-adrenergic. Format: binding. As to the method: as §1
The next series concerns the target α1B-adrenergic (Rattus norvegicus, UniProt P15823). The series can be described thus: In vitro receptor affinity, α1B-adrenergic. Format: binding. As to the method:
as §1

A further series deals with α2-adrenergic. The series can be described thus: In vitro receptor affinity, α2-adrenergic. Format: binding. The following applies: rat; radioligand [3H]-RX 821002. On the procedure:
as §1

The next series deals with α2C-adrenergic (Homo sapiens, UniProt P18825). The experiment in a line: In vitro receptor affinity, α2C-adrenergic. Format: binding. On the procedure: as §1
For a further series, the target named is β2-adrenergic (Homo sapiens, UniProt P07550). The series can be described thus: In vitro receptor affinity, β2-adrenergic. The series is classed as binding. As to the method: as §1
In the next series the target is μ-opiate (Rattus norvegicus, UniProt P33535). The experiment in a line: In vitro receptor affinity, μ-opiate. The series is classed as binding. On the procedure: as §1
The next series has as its system Dopamine-D2 receptor. The series can be described thus: Apomorphine-induced climbing behaviour in mice. The series is classed as in vivo. As to the method: In Vivo Animal Model for Dopamine-D2 Receptor (Ant)Agonistic Activity
Apomorphine-induced climbing behaviour in mice (Costall B, Naylor R J and Nohria V, Differential actions of typical and atypical agents on two behavioural effects of apomorphine in the mouse, Brit J Pharmacol 1978, 63: 381-382).
For oral (p.o.) administration: to the desired quantity (0.5-5 mg) of the solid test compound in a glass tube, some glass beads were added and the solid was milled by vortexing for 2 minutes. After addition of 1 ml of a solution of 1% methylcellulose in water and 2% (v/v) of Poloxamer 188 (Lutrol F68), the compound was suspended by vortexing for 10 minutes. The pH was adjusted to 7. Remaining particles in the suspension were further suspended by using an ultrasonic bath.
For intravenous (i.v.) administration: compounds were dissolved in physiological saline (0.9% NaCl) and the pH was adjusted to 7.

Series [1] deals with 6-OH-dopamine induced turning behavior in rats. The series can be described thus: 6-OH-dopamine induced turning behavior in rats. The series is classed as in vivo. The settings on record: Rattus norvegicus, po, read-out: Antagonism of 6-OH dopamine induced turning behavior after oral dosing: ED50. As to the method:
6-OH-dopamine induced turning behavior in rats (Ungerstedt U, 6-OH-DA induced degeneration of central monoamine neurons, Eur. J. Pharmacol. 1968 5: 107-110). Specifically:
Male rats (Wistar, Harlan, Netherlands; 400-500 g at time of experiment) are housed in a temperature (20-21±2° C.) and humidity controlled environment and receive water ad libitum except during experimental sessions. Food is restricted to approximately 15 g per rat per day. A 12-hour light-dark cycle (lights on 07.00-19.00 hour) is used. All experimental procedures are conducted in accordance with Dutch law and conform to local animal care and use committee stipulations.
Unilateral 6-hydroxydopamine (6-OHDA) lesions of the substantia nigra zona compacta are performed using a stereotaxic procedure. […] Good turning rats are defined as those which elicited at least 20 contralateral turns following amphetamine (2.5 mg/kg sc) in the 5 min time epoch beginning 25 min after administration and a mean of at least 20 contralateral turns recorded over a 30 min period after administration of apomorphine (0.25 mg/kg s.c.). […]
Following statistical randomization of the treatment groups rats are pretreated with compounds of the invention (0.1-3 mg/kg p.o.) or vehicle (2 ml/kg) and placed in the rotameters the contralateral rotational behaviour is then measured. […]

Series [2] in a line: Plasma levels of SLV308 and its N-oxide after oral dosing. The series is classed as in vivo. The following applies: after oral administration; rats. The text has this:
These findings were corroborated by measurements of plasma levels of SLV308 and its N-oxide after oral dosing with SLV308 and the N-oxide.

Series [3] relates to receptors for which the parent compound showed a high affinity. The experiment in a line: In vitro screening of the N-oxide metabolite (receptor affinity overall). The series is classed as binding. The following applies: affinity very low or below the detection limit.
From the text: In drug development, metabolites are routinely investigated for activity, toxicity, etc. […] These findings confirmed that in this case one of the most common situations with an N-oxide had occurred: metabolic deactivation.
as §1

Dopamine-D4, sequence (P21917 whole entry): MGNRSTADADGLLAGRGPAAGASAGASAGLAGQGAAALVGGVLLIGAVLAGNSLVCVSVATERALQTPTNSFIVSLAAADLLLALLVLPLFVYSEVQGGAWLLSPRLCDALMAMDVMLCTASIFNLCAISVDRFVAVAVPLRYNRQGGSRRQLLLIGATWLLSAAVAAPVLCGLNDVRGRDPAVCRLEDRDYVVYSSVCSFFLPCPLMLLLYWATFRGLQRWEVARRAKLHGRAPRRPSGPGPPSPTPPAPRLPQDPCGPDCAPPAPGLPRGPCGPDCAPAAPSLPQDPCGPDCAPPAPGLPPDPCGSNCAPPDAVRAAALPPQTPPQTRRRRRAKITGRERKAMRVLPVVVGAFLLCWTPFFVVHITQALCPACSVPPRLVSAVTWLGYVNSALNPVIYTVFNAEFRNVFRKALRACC
β2-adrenergic, sequence (P07550 whole entry): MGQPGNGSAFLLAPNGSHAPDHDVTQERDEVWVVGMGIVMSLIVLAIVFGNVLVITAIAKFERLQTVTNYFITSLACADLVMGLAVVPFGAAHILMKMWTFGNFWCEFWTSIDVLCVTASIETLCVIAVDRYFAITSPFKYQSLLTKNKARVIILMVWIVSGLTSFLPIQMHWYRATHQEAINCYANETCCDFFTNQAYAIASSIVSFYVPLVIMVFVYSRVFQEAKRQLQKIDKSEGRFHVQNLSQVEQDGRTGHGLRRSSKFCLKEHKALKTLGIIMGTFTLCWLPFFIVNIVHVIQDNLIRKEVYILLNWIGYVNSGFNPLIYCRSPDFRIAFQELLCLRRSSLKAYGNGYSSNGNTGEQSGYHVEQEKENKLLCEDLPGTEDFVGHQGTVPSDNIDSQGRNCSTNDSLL
α1B-adrenergic, sequence (P15823 whole entry): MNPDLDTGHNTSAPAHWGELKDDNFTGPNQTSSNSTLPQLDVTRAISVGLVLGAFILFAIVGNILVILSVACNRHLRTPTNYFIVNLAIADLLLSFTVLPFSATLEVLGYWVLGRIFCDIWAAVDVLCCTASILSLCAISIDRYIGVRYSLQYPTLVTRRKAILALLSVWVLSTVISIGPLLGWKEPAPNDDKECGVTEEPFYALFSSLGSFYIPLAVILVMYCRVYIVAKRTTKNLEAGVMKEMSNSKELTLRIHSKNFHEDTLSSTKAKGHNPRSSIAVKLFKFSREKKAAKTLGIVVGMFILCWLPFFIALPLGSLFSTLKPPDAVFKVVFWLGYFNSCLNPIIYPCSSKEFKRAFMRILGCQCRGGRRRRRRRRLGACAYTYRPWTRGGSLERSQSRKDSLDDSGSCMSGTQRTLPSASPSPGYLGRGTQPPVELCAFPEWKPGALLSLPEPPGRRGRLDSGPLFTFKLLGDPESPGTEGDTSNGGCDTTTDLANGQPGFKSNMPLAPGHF
α1A-adrenergic, sequence (P43140 whole entry): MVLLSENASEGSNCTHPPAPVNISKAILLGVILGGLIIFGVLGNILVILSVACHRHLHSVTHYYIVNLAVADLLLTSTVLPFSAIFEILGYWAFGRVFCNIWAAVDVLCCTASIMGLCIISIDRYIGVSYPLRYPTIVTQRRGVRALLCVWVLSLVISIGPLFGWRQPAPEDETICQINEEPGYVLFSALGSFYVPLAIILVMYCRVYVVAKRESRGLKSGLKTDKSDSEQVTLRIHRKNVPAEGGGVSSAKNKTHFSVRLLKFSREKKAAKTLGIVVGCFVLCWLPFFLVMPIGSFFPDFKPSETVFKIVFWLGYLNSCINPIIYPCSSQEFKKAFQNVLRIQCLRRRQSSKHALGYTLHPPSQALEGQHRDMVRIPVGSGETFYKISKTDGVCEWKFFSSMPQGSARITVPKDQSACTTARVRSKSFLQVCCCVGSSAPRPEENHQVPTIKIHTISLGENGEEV
Dopamine-D1, sequence (P21728 whole entry): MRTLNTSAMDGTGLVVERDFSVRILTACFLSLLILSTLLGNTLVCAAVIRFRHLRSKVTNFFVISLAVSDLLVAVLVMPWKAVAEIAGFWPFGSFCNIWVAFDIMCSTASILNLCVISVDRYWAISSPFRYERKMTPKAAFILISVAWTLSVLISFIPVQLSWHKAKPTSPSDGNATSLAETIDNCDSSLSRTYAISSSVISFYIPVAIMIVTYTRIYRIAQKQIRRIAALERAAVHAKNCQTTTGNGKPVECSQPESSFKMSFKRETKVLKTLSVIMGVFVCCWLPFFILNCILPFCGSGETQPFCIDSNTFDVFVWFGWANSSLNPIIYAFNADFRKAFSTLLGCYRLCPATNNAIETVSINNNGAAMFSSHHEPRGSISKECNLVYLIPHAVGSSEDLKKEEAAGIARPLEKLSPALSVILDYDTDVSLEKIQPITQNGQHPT
5-HT1B, sequence (P28564 whole entry): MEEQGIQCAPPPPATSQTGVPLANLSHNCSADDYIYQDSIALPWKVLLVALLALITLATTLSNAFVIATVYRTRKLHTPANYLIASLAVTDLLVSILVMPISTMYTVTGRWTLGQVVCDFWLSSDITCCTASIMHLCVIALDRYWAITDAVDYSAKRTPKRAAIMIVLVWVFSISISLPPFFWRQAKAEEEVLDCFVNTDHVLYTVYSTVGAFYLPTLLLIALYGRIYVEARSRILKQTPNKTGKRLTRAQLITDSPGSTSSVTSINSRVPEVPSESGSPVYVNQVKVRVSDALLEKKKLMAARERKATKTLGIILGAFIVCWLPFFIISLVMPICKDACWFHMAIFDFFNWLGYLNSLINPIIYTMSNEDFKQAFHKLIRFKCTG
μ-opiate, sequence (P33535 whole entry): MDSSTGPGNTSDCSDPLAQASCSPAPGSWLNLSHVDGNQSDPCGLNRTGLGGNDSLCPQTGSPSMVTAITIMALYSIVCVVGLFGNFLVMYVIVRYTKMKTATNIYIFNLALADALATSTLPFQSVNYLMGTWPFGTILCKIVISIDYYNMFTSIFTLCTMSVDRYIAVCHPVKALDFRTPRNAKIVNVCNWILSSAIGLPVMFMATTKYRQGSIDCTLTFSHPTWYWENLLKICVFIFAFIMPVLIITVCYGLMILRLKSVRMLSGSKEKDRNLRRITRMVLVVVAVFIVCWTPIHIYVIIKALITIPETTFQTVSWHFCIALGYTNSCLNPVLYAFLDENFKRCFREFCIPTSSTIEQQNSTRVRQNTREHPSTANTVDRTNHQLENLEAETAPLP
α2C-adrenergic, sequence (P18825 whole entry): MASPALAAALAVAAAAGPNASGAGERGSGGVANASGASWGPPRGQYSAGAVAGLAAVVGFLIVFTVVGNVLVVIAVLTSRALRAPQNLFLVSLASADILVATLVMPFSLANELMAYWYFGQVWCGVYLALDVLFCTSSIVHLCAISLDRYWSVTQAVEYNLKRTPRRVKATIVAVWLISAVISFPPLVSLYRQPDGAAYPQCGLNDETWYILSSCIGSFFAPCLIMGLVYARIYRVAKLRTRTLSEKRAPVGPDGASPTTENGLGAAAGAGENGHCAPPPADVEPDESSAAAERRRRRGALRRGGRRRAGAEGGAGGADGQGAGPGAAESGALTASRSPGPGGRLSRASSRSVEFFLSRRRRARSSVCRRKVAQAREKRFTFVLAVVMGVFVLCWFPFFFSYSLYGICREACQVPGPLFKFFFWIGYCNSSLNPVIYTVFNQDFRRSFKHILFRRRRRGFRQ

In turn, `C[N+]1([O-])CCN(c2cccc3[nH]c(=O)oc23)CC1` [N-oxide of SLV308, N-Oxide of SLV308] displayed a melting point of 242 to 243 °C. Further, on Dopamine-D1, the pKi was less than 6.00. On Dopamine-D4, this compound showed a pKi of 6.89. Also, on Dopamine-D4 (potency ratio), the “Factor by which affinities for dopamine-D4 receptors differ (N-oxide vs SLV308)” value came out at 10. The compound also had a pKi on 5-HT1B of less than 6.00. Moreover, the negative-log Ki (pKi) at α1A-adrenergic was 6.20. At α1B-adrenergic, this compound had a negative-log Ki (pKi) of 6.40. The pKi at α2-adrenergic was 6.30. The compound further showed a pKi at α2C-adrenergic of 6.40. This compound also gave a pKi at β2-adrenergic of less than 6.00. In addition, at μ-opiate, the pKi is less than 6.00. The “In vivo activity compared with the parent compound (in words)” value with Dopamine-D2 receptor (administered intravenously) is on record as “approximately one tenth of the activity of the parent compound”. For the same compound, the “Antagonism of apomorphine induced climbing behavior after intravenous dosing: ED50” value in the series with Dopamine-D2 receptor (mice, i.v.) is on record as 0.90 mg/kg. Besides, in the series on Dopamine-D2 receptor (mice, oral), the “Antagonism of apomorphine induced climbing behavior after oral dosing: ED50” value amounted to 0.79 mg/kg. Moreover, the “In vivo activity compared with the parent compound (in words)” value in the series with Dopamine-D2 receptor (oral administration) is listed as “equipotent with SLV308”. Besides, the median effective dose (ED50) in [1] is less than 1 mg/kg. In addition, the “Plasma levels of the N-oxide relative to SLV308 (in words)” value in series [2] is “approximately equal”. Moreover, the “In vitro activity (in words)” value in [3] was “virtually inactive”.
